Legend:
STAT3 targeted genes = assay: qRT-PCR of STAT3 targeted genes in derived xenografts; format: in vivo, mouse; conditions: 10 µg i.p. once every 2 days, n = 6, p < 0.01
Experimental: Figure 7 Peptide derived from the STAT3‐binding sites of SHF is an effective GBM suppressive strategy. A) Binding model between SHF and STAT3 using ZDOCK server. […] B) IF staining determined the cell penetrability and nuclear‐localization of C16. U251 cells were incubated with C16 or SC for 2 h and performed IF staining using the indicated antibodies. Bars, 10 µm. C) The statical analysis of adsorption equilibrium assay detecting the binding of C16 and SC with recombinant STAT3. D) Pull‐down assay indicating C16 binds STAT3. GST‐STAT3 was incubated with C16 or SC for 2 h, and the pull‐down assay was performed using Anti‐His magnetic beads. E) IP assay showing the effect of C16 on STAT3 dimerization. […] The relative quantification of STAT3 dimerization was listed. […] The relative quantification of STAT3/DNMT1 interaction was listed. […] The relative quantification of STAT3/DNMT1 interaction was listed. […] Positive cells were quantified 20 randomly selected fields per mouse (n = 6, Student's t‐test, **p < 0.01). […]
Total RNA was extracted using TRIzol reagent (Invitrogen) according to the manufacturer's instructions. cDNA was synthesized with the M‐MLV Reverse Transcriptase Kit (Cwbio, Beijing, China). PCR analyses were conducted to quantify mRNA expression using Real SYBR Mixture (Cwbio) on a Lightcycler 480 II instrument (Roche Applied Science). […]

STAT3/DNMT1 interaction = assay: IP assay: ectopic STAT3/DNMT1 interaction in 293T cells; format: cell-based, human; conditions: 293T cells expressing ectopic STAT3 and DNMT1, C16 for 2 h
Experimental: (§1) Figure 7 Peptide derived from the STAT3‐binding sites of SHF is an effective GBM suppressive strategy. A) Binding model between SHF and STAT3 using ZDOCK server. […] B) IF staining determined the cell penetrability and nuclear‐localization of C16. U251 cells were incubated with C16 or SC for 2 h and performed IF staining using the indicated antibodies. Bars, 10 µm. C) The statical analysis of adsorption equilibrium assay detecting the binding of C16 and SC with recombinant STAT3. D) Pull‐down assay indicating C16 binds STAT3. GST‐STAT3 was incubated with C16 or SC for 2 h, and the pull‐down assay was performed using Anti‐His magnetic beads. E) IP assay showing the effect of C16 on STAT3 dimerization. 293T cells transfected with indicated vectors were incubated with C16 for 2 h. The relative quantification of STAT3 dimerization was listed. F) IP assay detecting the effect of C16 on the interaction of STAT3 and DNMT1. […] The relative quantification of STAT3/DNMT1 interaction was listed. […] The relative quantification of STAT3/DNMT1 interaction was listed. […] Positive cells were quantified 20 randomly selected fields per mouse (n = 6, Student's t‐test, **p < 0.01). […]
(§2) Immunoprecipitation (IP) experiments were performed to analyze the protein interactions. […] Precipitated products were analyzed by Western blot using the specified antibodies. […]

U118 cells = assay: Cell growth assay (CCK-8), U118; format: cell-based, human; conditions: n=6
Experimental: (§3) Cell growth was quantified using the Cell Counting Kit‐8 Assay Kit (Bimake, Houston, TX). Each experiment was repeated at least six times. For the colony formation assay, 800 cells were seeded into each well of a six‐well plate with soft agar (Agarose; Sigma, St. Louis, MO) and maintained in a medium containing 10% FBS for 14 days. The colonies were fixed with methanol and stained with 0.1% crystal violet; the clones containing at least 50 cells were counted using an inverted microscope.
(§4) Supplementary Fig. 9 C16 inhibits tumor growth and promotes chemosensitivity in vitro.
(§5) B. Colony formation of cells treated with SC or C16 (left) and the accompanying statistical
(§6) analysis (right; n=6, Student’s t-test, **P < 0.01).
(§7) C. Annexin V staining flow cytometry assay of cells simultaneously treated with Dox with SC or
(§8) C16 for 48 h (n=3, Student’s t-test, *P < 0.05, **P < 0.01).
(§9) (1 picture or pasted object on this page, not shown here)

STAT3 dimerization = assay: IP assay: STAT3 dimerization in 293T cells; format: cell-based, human; conditions: transfected 293T cells incubated with C16 for 2 h
Experimental: as §1, §2

GBM cells = assay: Colony formation assay; format: cell-based, human; conditions: C16 vs SC; 25 uM stated adequate for subsequent experiments; n=6, P < 0.01
Experimental: as §3, §4, §5, §6, §7, §8, §9

C16: peptide spanning SHF amino acids 388–421, palmitic acid at the N-terminus, amidated C-terminus, 3× His tags added to the C-terminal (PFSSVPEIVHHYASRKLPIKGAEHMSLLYPVAIR; palmitic acid at the N-terminus; amidated C-terminus; left off: 3× His tags, C-terminal, kept)
STAT3 targeted gene expression in derived xenografts (STAT3 targeted genes): significantly down‐regulated
ectopic STAT3/DNMT1 interaction (STAT3/DNMT1 interaction): decrease
cell growth inhibition (U118 cells): inhibited cell growth with concentration dependence
inhibition of STAT3 dimerization (IP) (STAT3 dimerization): effectively inhibits STAT3 dimerization
colony growth (GBM cells): effectively impaired colony growth

Reference: article PMC9475553, “SHF Acts as a Novel Tumor Suppressor in Glioblastoma Multiforme by Disrupting STAT3 Dimerization” (Advanced Science, 2022)
